In this experiment the test system is carrageenan-induced thermal hyperalgesia. Briefly: Carrageenan rat footpad thermal hyperalgesia test (Hargreaves test). In kind it is in vivo.

As usually defined, the ED50 is the midpoint of the dose-response relation.

From the text: The aim of this experiment was to characterize the antinociceptive and anti-inflammatory effects of gabapentin administered in combination with a prototypic NSAID in the rat. […] This assay utilizes an extract of seaweed (carrageenan) that, when injected into the footpad of test animals, causes a sterile inflammation, thereby lowering the pain threshold.
Male Sprague-Dawley rats (200-250 g, Sasco Laboratories) were used. Rats were group housed 5/cage on a 12-hour light:dark cycle with free access to food and water. Rats received only one dose of a drug or drug combination. All drugs were administered orally by gavage.
Dose-effect curves were first determined for (1) gabapentin by itself and (2) a prototypic NSAID (e.g., naproxen) by itself. The ED50 value and 95% confidence limits of each agent was determined, as was the time to peak effect. […]
Carrageenan-induced thermal hyperalpesia: Rats were acclimated to a testing chamber whose glass floor was maintained at 25° C. Thirty minutes later, a high intensity beam of light was focused through the glass on the ventral surface of each hindpaw, and the latency to reflex withdrawal of the paw from the light beam was measured to the nearest 0.1 second. […] Response latencies for the ipsilateral and contralateral hindpaws were then re-determined 15, 30, 45, 60, 90 and 120 minutes later. […]
Data were expressed as the mean ±SEM. […]

As for `COc1ccc2cc([C@H](C)C(=O)O)ccc2c1` [Naproxen sodium, naproxen sodium], the anti-hyperalgesic action result (PO, gabapentin 3-100 mg/kg, naproxen sodium 0.3-30 mg/kg, combinations in fixed ratio) is recorded as “caused anti-hyperalgesic actions”. For the same compound, the 50% effective dose (ED50) (Rattus norvegicus, 2 h, single drug, oral gavage, male Sprague-Dawley rats, data 120 min after dosing, 95% confidence limits in parentheses) worked out at 0.36 mg/kg.

Values taken from patent US6451857B1, “Analgesic compositions comprising anti-epileptic compounds and methods of using same” (Warner-Lambert Company, priority 1999, dated 2002).
